Laboratory results published in patent US8987193B2, “Nisin derivatives and the use thereof” (University College Cork—National University of Ireland, Cork, priority 2008, dated 2015).
Ends that are not written are not given here.

Key:
Experiment in all cases: Deferred antagonism assay
L. plantarum CBC6 = type: cell-based, Lactobacillus plantarum; design: key: + = Enhanced bioactivity relative to control; − = Bioactivity equal to or less than control; NA = no activity evident; conditions: producing strain
In short: (§1)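 L. lactis NZ9800 strains expressing nisin A hinge variants were replicated or spotted on GM17 agar, grown overnight, then overlaid with 0.75% w/v agar seeded with indicator. Zone size is the clearing diameter minus 5 mm colony growth.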

L. lactis CBC7 = type: cell-based; design: key: + = Enhanced bioactivity relative to control; − = Bioactivity equal to or less than control; NA = no activity evident; conditions: producing strain
In short: as §1

Staph. aureus DPC5245 = type: cell-based; conditions: producing strain; diameter of zone minus 5 mm; average of duplicates; St. aureus DPC5245
In short: (§2)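 Producer strains replicated on GM17 agar, grown overnight, then overlaid with soft agar (0.75% w/v) seeded with indicator strain. Zone size = clearing diameter minus 5 mm growth diameter, relative to NZ9800 pCI372nisA control; mean of duplicates.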

[1] = tested on: Strep. agalactiae ATCC13813; type: cell-based; conditions: producing strain, diameter of zone minus 5 mm, average of duplicates
[2] = tested on: Staph. aureus ST528 (MRSA); type: cell-based; conditions: producing strain, diameter of zone minus diameter of bacterial growth (5 mm), average of duplicates
In short: as §2

[3] = tested on: Listeria monocytogenes 33008; type: cell-based; design: key: −, no inhibition; (+), clear zone directly above the colony; +, 1-5 mm zone; ++, 6-10 mm zone; +++, <10 mm zone; conditions: nisin strain; L. monocytogenes 33008
Method: (§3) Deferred antagonism assays were performed by replicating strains on GM17 or GM17 x-gal agar plates and allowing them to grow overnight before overlaying with either GM17/BHI/TS/MH agar (0.75% w/v agar) seeded with the appropriate indicator strain. Zone size was calculated as the diameter of the zone of clearing minus the diameter of bacterial growth (5 mm) For higher throughput screening of N20PXX, XM21VX, XXK22T and XXX banks deferred antagonism assays were performed by replicating strains using a 96 pin replicator (Boekel) or spotting 5 μl of a fresh overnight culture on GM17 agar plates and allowing them to grow overnight. […] Additional sets of indicators were employed to further assess/reassess the bioactivity of a number of strains. […] For well-diffusion assays molten agar was cooled to 48° C. and seeded with the appropriate indicator strain. The inoculated medium was rapidly transferred into sterile Petri plates in 50 ml volumes, allowed to solidify and dried. Wells (4.6 mm in diameter) were then made in the seeded plates. Purified nisin and mutant nisins were resuspended in 0.005% acetic acid, serially diluted, 50 μl volumes were dispensed into the aforementioned wells and the plates incubated at 37° C. overnight. Bioactivity was expressed as arbitrary units/ml (AU/ml) and calculated as the reciprocal of the highest dilution that gave a definite zone multiplied by the conversion factor (i.e. 20 when 50 μl was used) (Ryan et al., 1996).

[4] = tested on: Listeria monocytogenes 33015; type: cell-based; design: key: −, no inhibition; (+), clear zone directly above the colony; +, 1-5 mm zone; ++, 6-10 mm zone; +++, <10 mm zone; conditions: nisin strain; L. monocytogenes 33015
Method: as §3

[5] = tested on: Listeria monocytogenes F6854; type: cell-based; design: key: −, no inhibition; (+), clear zone directly above the colony; +, 1-5 mm zone; ++, 6-10 mm zone; +++, <10 mm zone; conditions: nisin strain; L. monocytogenes F6854
Method: as §3

[6] = tested on: Listeria monocytogenes N3008; type: cell-based; design: key: −, no inhibition; (+), clear zone directly above the colony; +, 1-5 mm zone; ++, 6-10 mm zone; +++, <10 mm zone; conditions: nisin strain; L. monocytogenes N3008
Method: as §3

[7] = tested on: Listeria monocytogenes 33028; type: cell-based; design: key: −, no inhibition; (+), clear zone directly above the colony; +, 1-5 mm zone; ++, 6-10 mm zone; +++, <10 mm zone; conditions: nisin strain; L. monocytogenes 33028
Method: as §3

Listeria innocua CLIP = type: cell-based; design: key: −, no inhibition; (+), clear zone directly above the colony; +, 1-5 mm zone; ++, 6-10 mm zone; +++, <10 mm zone; conditions: nisin strain
Method: as §3

[8] = tested on: Listeria monocytogenes 33233; type: cell-based; design: key: −, no inhibition; (+), clear zone directly above the colony; +, 1-5 mm zone; ++, 6-10 mm zone; +++, <10 mm zone; conditions: nisin strain; L. monocytogenes 33233
Method: as §3

[9] = tested on: Listeria monocytogenes 33226; type: cell-based; design: key: −, no inhibition; (+), clear zone directly above the colony; +, 1-5 mm zone; ++, 6-10 mm zone; +++, <10 mm zone; conditions: nisin strain; L. monocytogenes 33226
Method: as §3

L. monocytogenes CBC3 = type: cell-based, Listeria monocytogenes; design: key: + = Enhanced bioactivity relative to control; − = Bioactivity equal to or less than control; NA = no activity evident; conditions: producing strain; L. mono CBC3
In short: as §1

L. monocytogenes CBC2 = type: cell-based, Listeria monocytogenes; design: key: + = Enhanced bioactivity relative to control; − = Bioactivity equal to or less than control; NA = no activity evident; conditions: producing strain; L. mono CBC2
In short: as §1

L. monocytogenes CBC1 = type: cell-based, Listeria monocytogenes; design: key: + = Enhanced bioactivity relative to control; − = Bioactivity equal to or less than control; NA = no activity evident; conditions: producing strain; L. mono CBC1
In short: as §1

Substance | Bioactivity relative to control (L. plantarum CBC6) | Bioactivity relative to control (L. lactis CBC7) | zone size relative to that of the NZ9800 pCI372nisA control (Staph. aureus DPC5245) [%] | zone size relative to that of the NZ9800 pCI372nisA control [1] [%] | zone size relative to that of the NZ9800 pCI372nisA control [2] [%] | Activity score (zone) [3] | Activity score (zone) [4] | Activity score (zone) [5] | Activity score (zone) [6] | Activity score (zone) [7] | Activity score (zone) (Listeria innocua CLIP) | Activity score (zone) [8] | Activity score (zone) [9] | Bioactivity relative to control (L. monocytogenes CBC3) | Bioactivity relative to control (L. monocytogenes CBC2) | Bioactivity relative to control (L. monocytogenes CBC1)
NisinA K22A (ITSISLCTPGCKTGALMGCNMATATCHCSIHVSK; not fully specified; also: lantibiotic: lanthionine rings and dehydro residues not placed; UniProt P13068 24-57, looked up, variant K22A) [nisin A derivative, hinge substitution K22A] | − | − | 117 | 137 | 126 | − | + (+, 1-5 mm zone) | + (+, 1-5 mm zone) | + (+, 1-5 mm zone) | + (+, 1-5 mm zone) | + (+, 1-5 mm zone) | + (+, 1-5 mm zone) | + (+, 1-5 mm zone) | − | + | −
NisinA M21G (ITSISLCTPGCKTGALMGCNGKTATCHCSIHVSK; not fully specified; also: lantibiotic: lanthionine rings and dehydro residues not placed; UniProt P13068 24-57, looked up, variant M21G) [nisin A derivative, hinge substitution M21G] | − | − | 123 | 115 | 125 | − | − | − | − | − | + (+, 1-5 mm zone) | − | − | − | + | −
NisinA M21I (ITSISLCTPGCKTGALMGCNIKTATCHCSIHVSK; not fully specified; also: lantibiotic: lanthionine rings and dehydro residues not placed; UniProt P13068 24-57, looked up, variant M21I) [nisin A derivative, hinge substitution M21I] | − | + | 115 | 92 | 107 | − | + (+, 1-5 mm zone) | + (+, 1-5 mm zone) | + (+, 1-5 mm zone) | + (+, 1-5 mm zone) | − | + (+, 1-5 mm zone) | + (+, 1-5 mm zone) | − | + | −
NisinA M21S (ITSISLCTPGCKTGALMGCNSKTATCHCSIHVSK; not fully specified; also: lantibiotic nisin: dehydrated residues and thioether rings not placed; UniProt P13068 24-57, looked up, variant M21S) [nisin A derivative, hinge substitution M21S] | − | − | 110 | 110 | 105 | + (+, 1-5 mm zone) | + (+, 1-5 mm zone) | + (+, 1-5 mm zone) | ++ (++, 6-10 mm zone) | ++ (++, 6-10 mm zone) | + (+, 1-5 mm zone) | + (+, 1-5 mm zone) | + (+, 1-5 mm zone) | + | + | −
